Consider two molecules from publication PMC9298526, “RapD Is a Multimeric Calcium-Binding Protein That Interacts With the Rhizobium leguminosarum Biofilm Exopolysaccharide, Influencing the Polymer Lengths” (Frontiers in Microbiology, 2022).

Where “and” joins values, the source holds several entries; their conditions need not be identical. Equal values may be shown once.

The target of one data set is T1, RapD (Rhizobium johnstonii, UniProt Q1MFT2).
T1 construct: gene RL2702
T1 sequence (Q1MFT2 1-277): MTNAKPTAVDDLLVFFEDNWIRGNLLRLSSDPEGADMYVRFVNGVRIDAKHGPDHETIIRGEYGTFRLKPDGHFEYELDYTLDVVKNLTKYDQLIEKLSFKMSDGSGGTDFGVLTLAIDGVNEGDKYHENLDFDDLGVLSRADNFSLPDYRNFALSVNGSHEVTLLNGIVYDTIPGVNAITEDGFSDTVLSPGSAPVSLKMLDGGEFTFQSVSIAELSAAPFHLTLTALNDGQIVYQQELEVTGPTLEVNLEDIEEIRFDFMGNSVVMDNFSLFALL
Nature of the data set: binding inhibition assay (ELISA): RapD to immobilized EPS. To be noted: with calcium (TBS, 1 mM CaCl2); room temperature; galactose 0-300 mM preincubated with RapD; proteinase K treated Rlv 3841 EPS immobilized; indirect competition read-out. (ELISA stands for enzyme-linked immunosorbent assay.)

Data set [1] concerns the molecule itself. Kind of data set: SEC with 90° static light scattering (SLS) and refractometer; Superdex 200, 100 ul of RapD at 1 mg/ml pre-incubated with 1.25 mM CaCl2, 20 mM Tris-HCl, 0.15 M NaCl, pH 8, 0.4 ml/min, 20°C, BSA as standard.

Consider `OC[C@H]1OC(O)[C@H](O)[C@@H](O)[C@H]1O` (some centres unmarked) [galactose], for which the “partial inhibition of EPS binding” value at RapD is listed as “RapD interaction with the EPS was partially inhibited in the presence of high concentrations of galactose”.

B1: Recombinant full-length RapD (natural protein, Rhizobium leguminosarum bv. viciae 3841, UniProt Q1MFT2 1-277, looked up)
chain: MTNAKPTAVDDLLVFFEDNWIRGNLLRLSSDPEGADMYVRFVNGVRIDAKHGPDHETIIRGEYGTFRLKPDGHFEYELDYTLDVVKNLTKYDQLIEKLSFKMSDGSGGTDFGVLTLAIDGVNEGDKYHENLDFDDLGVLSRADNFSLPDYRNFALSVNGSHEVTLLNGIVYDTIPGVNAITEDGFSDTVLSPGSAPVSLKMLDGGEFTFQSVSIAELSAAPFHLTLTALNDGQIVYQQELEVTGPTLEVNLEDIEEIRFDFMGNSVVMDNFSLFALL
notes: N-terminal Ra/CHDL domain (aa 1-122) and C-terminal region (aa 123-277); Cloned NdeI-NotI into pET-22b; The protein was decalcified with EGTA before calcium was added; also called Apo-RapD; RapD-Apo; source: E. coli BL21 (DE3) carrying pET22brapD, purified (Ni-NTA HiTrap Chelating, dialysis against 10 mM EGTA, Superdex 200); not shown: His tag (from the vector pET-22b)
On to B1, for which, in data set [1], the stoichiometry N (as a rule, a count of units in the complex or per binding partner) is 3 and 2.
